Assay results published in US20220267394A1, “COMPOUNDS FOR INDUCING TISSUE FORMATION AND USES THEREOF” (HISTIDE AG, priority 2015, published 2022).

Tests used:
[1] = tested on: Human Hematopoeitic Stem Cells; test: Differentiation of human hematopoietic stem cells: CD34+ expression by immunostaining; assay type: cell-based; settings: peptides in solution in the cell culture media, 400 ng/mL, 48 hours
Text: (§1) The following starting materials and reagents were used: • Apatite ceramics (also called apatite or ceramic in the present invention) were synthetized as described in Mater Res. 2004; 7(4): 625-630. • Titanium was obtained from Goodfellow®. • Hydrogel (poly(acrylamide-co-acrylic acid) gel) was synthetized as described in Langmuir 2011; 27(22):13635-42. • PEEK was obtained from Goodfellow®. • PET (Poly(ethylene terephthalate) was obtained from Goodfellow®. • Type-I collagen sponge was obtained from Sigma®. • Hexane was obtained from Sigma®. • 3-succinimidyl-3-maleimidopropionate (SMP) was obtained from Sigma®. • DMF was obtained from Sigma®. • PBS 1× was obtained from Gibco®. • 3-(ethoxydimethylsilyl)propylamine was obtained from Sigma®. • Ammonium persulfate was obtained from Biorad®. • N,N,N′,N′-tetramethylethylenediamine was obtained from Aldrich®. • Acrylamid was obtained from Merck®. • Acrylic acid was obtained from Merck®. • N,N-methylene-bis-acrylamide was obtained from Merck®. • NaOH was obtained from Aldrich®. • N,N,N′,N′-tetramethylethylenediamine was obtained from Aldrich®. • Dimethylaminopropyl-3-ethylcarbodiimide hydrochloride was obtained from Aldrich®. • N-hydroxysuccinimide was obtained from Aldrich®. • 2-(N-morpholino)-ethane sulfonic acid was obtained from Aldrich®. • MilliQ water: is water characterised in terms of resistivity (typically 18.2 MΩ·cm at 25° C.). • Low glucose Dulbecco's Modified Eagle Medium (DMEM) was obtained from Invitrogen® • Minimum Essential Medium Eagle without ascorbic acid (αMEM) was obtained from Invitrogen®. • All of the cell culture experiments were carried out without any serum in the medium for the first 8 hours of culture. • Osteoblast progenitors or precursor osteoblasts: MC3T3-E1 cells were obtained from ATCC®. These cells were cultured in Alpha-MEM medium supplemented with 10% fetal calf serum (FCS) and 1% penicillin/streptomycin. All cells were used at a low passage number (passage 7), were subconfluently cultured and were seeded at 10^4 cells/cm^2 for the purpose of the experiments. • Human bone marrow Mesenchymal Stem Cells (hMSCs) were obtained from Lonza®. These cells were cultured in Alpha-MEM supplemented with 10% (v/v) FBS and 1% penicillin/streptomycin and incubated in a humidified atmosphere containing 5% (v/v) CO2 at 37° C. All cells were used at a low passage number (passage 2 to 4), were subconfluently cultured and were seeded at 10^4 cells/cm^2 for the purpose of the experiments. • Human adipose Mesenchymal Stem Cells (haMSCs) were obtained from Lonza®. These cells were cultured in Alpha-MEM supplemented with 10% (v/v) FBS and 1% penicillin/streptomycin and incubated in a humidified atmosphere containing 5% (v/v) CO2 at 37° C. All cells were used at a low passage number (passage 3 to 4), were subconfluently cultured and were seeded at 10^4 cells/cm^2 for the purpose of the experiments. • Mouse Hair Follicle Stem Cells were isolated and cultured as described in Methods Mol Biol. 2010; 585:401-20. • Neuron cells are Neuronal Schwann Cells obtained from ATCC®. These cells were cultured in Dulbecco's Modified Eagle's Medium supplemented with 10% (v/v) FBS and 1% penicillin/streptomycin and incubated in a humidified atmosphere containing 5% (v/v) CO2 at 37° C. All cells were used at a low passage number (passage 6-8), were subconfluently cultured and were seeded at 10^4 cells/cm^2 for the purpose of the experiments. • Human umbilical-vein endothelial cells (HUVECs) were purchased from Promocell®. HUVECs were isolated and grown on gelatin coated culture flasks in a complete HUVEC culture medium (IMDM (Invitrogen, France) supplemented with 20% (v/v) fetal bovine serum (FBS) (PAA, France) and 0.4% (v/v) EC growth supplement/heparin kit (Promocell, France)). Cells were subcultured by using trypsin/EDTA (Invitrogen, France) and maintained in a humidified atmosphere containing 5% CO2 at 37° C. These cells were used at a passage number 3 to 5 for the purpose of the experiments. […]

hMSCs [2] = test: CD-105 expression by immunostaining; assay type: cell-based, human; settings: Table 7, previously reported peptides in solution (not combined with a bioactive carrier)
Description: For this type of quantification the freeware image analysis ImageJ® software was used. The raw image was first converted to an 8-bit file, and then the unsharp mask feature was used (settings 1:0.2) to remove the image background (rolling ball radius 10). After smoothing, the resulting image, which appears similar to the original photomicrograph but with minimal background, was then converted to a binary image by setting a threshold. Threshold values were determined empirically by selecting a setting, which gave the most accurate binary image for a subset of randomly selected photomicrographs. The cell area was determined by manual delineation on raw fluorescent images. Total contact area and mean contact area per cell were calculated by “analyse particules” in ImageJ®. A minimum of 30 cells per condition were analyzed. Stro-1, CD-34+, and CD-105 expressions were determined using this procedure.
Likewise, using the method detailed in the description, the RMSD of another 27 previously reported peptide sequences have been determined (Table 7) and correlated with the expressions of STRO-1 and CD-105 in solution. […] Data were obtained with peptides in solution (i.e. not combined with a bioactive carrier).

hMSCs [3] = test: Loss of stemness: STRO-1 expression by immunostaining; assay type: cell-based, human; settings: Table 7, previously reported peptides in solution (not combined with a bioactive carrier)
How it was run: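 hMSCs cultured on plastic with GFR-binding peptides in solution (some sequences tested with a bioactive carrier), then fixed, permeabilized and immunostained for Stro-1. Stro-1-positive contact number and area quantified by thresholded image analysis, minimum 30 cells per condition.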

Hair Follicle Stem Cells = test: Loss of quiescence and activation of hair follicle stem cells on 73 kPa hydrogels (Sox2, BMP-6 release); assay type: cell-based, mouse; settings: 73 kPa hydrogels covalently modified with peptides
Text: as §1, with “C.” for “C. All cells were used at a low passage number (passage 3 to 4), were subconfluently cultured and were seeded at 10^4 cells/cm^2 for the purpose of the experiments. • Mouse Hair Follicle Stem Cells were isolated and cultured as described in Methods Mol Biol. 2010; 585:401-20. • Neuron cells are Neuronal Schwann Cells obtained from ATCC®. These cells were cultured in Dulbecco's Modified Eagle's Medium supplemented with 10% (v/v) FBS and 1% penicillin/streptomycin and incubated in a humidified atmosphere containing 5% (v/v) CO2 at 37° C. All cells were used at a low passage number (passage 6-8), were subconfluently cultured and were seeded at 10^4 cells/cm^2 for the purpose of the experiments. • Human umbilical-vein endothelial cells (HUVECs) were purchased from Promocell®. HUVECs were isolated and grown on gelatin coated culture flasks in a complete HUVEC culture medium (IMDM (Invitrogen, France) supplemented with 20% (v/v) fetal bovine serum (FBS) (PAA, France) and 0.4% (v/v) EC growth supplement/heparin kit (Promocell, France)). Cells were subcultured by using trypsin/EDTA (Invitrogen, France) and maintained in a humidified atmosphere containing 5% CO2 at 37° C. These cells were used at a passage number 3 to 5 for the purpose of the experiments.”

hMSCs [4] = test: Cartilage regeneration: chondrocyte differentiation of hMSCs on 14 kPa hydrogels (Sox9, Aggrecan); assay type: cell-based, human; settings: 14 kPa hydrogels covalently modified with peptides, 96 hours
Description: Total RNA was extracted by using the RNeasy total RNA kit (Qiagen®) according to the manufacturer's instructions. Purified total RNA was used as a template in order to make cDNA by a reverse transcription reaction (Gibco Brl®) with random primers (Invitrogen®). The cDNA was then used as a template for a real-time PCR amplification in the presence of SYBR green reagents (Bio-Rad®) by using a thermocycler (iCycler, Biorad®). Data were analyzed with the iCycler IQ™® software and compared by the ΔΔCt method. […]
Total RNA was extracted by using the RNeasy Mini Kit (Qiagen) and […] RNA was used for cDNA synthesis with AMV kit (Invitrogen®) according to the manufacturer' instructions. Semi-quantitative reverse transcriptase-polymerase chain reaction (RT-PCR) was performed with Taq DNA Polymerase (Invitrogen®) in a thermocycler (Bio-Rad®). […] The PCR products were analyzed on 2% agarose gels. For the Aggrecan gene, the PCR bands were densitometrically quantified by using the BioCapt software (Vilber). […]
It was then verified that these hMSCs cultured on the covalently modified hydrogels were differentiated into chondrocyte cells by analyzing the expression of the chondrocyte gene biomarker: Aggrecan. […] For that a semi-quantitative RT-PCR was performed as described in the Methods section for the Aggrecan gene and a Quantitative Real Time PCR for Sox9.

[5] = Stability of non-covalent deposit of FITC-labelled peptides on apatite ceramics or type-I collagen sponge; assay type: physicochemical; settings: non-covalent coating, after 3, 7 or 10 days
Description: Non-covalent modifications of the materials were performed in air atmosphere at room temperature. The non-covalent coating strategy consisted in using a mixture of inducing peptide (SEQ ID NO: 23; concentration of 1×10^−3M) with an apatite ceramics implant or a mixture of inducing peptide (SEQ ID NO: 22; concentration of 1×10^−3M) with a type-I collagen sponge. The non-covalently coated conventional materials were characterized by using fluorescent peptides (Here SEQ ID NO: 22 and 23 covalently bound to fluorescein isothiocyanate (FITC), FIG. 6). The results shown here in FIG. 6 were obtained from experiments performed with apatite ceramics and a type-I collagen sponge. […] Indeed, after 3, 7 or 10 days, the osteogenic peptides were still coupled to the ceramics or the type-I collagen (FIGS. 7a and b).

In the case of “2156 (APVKMEPLPTVYYDDMGVPTEQLSNDMVEESGSL; GFR-binding peptide) [compound 2156]”, the “CD34+ Expression (%)” value [1] is reported as 25%.
For “2157 (EPSSVSQAAEPLPIVYYRIKPHQGQHEQLSNMIVKSSKSS; GFR-binding peptide) [compound 2157]”, the “CD34+ Expression (%)” value [1] was 23%.
In the case of “2215 (VPQTLDPLPIIYYVGRNVRVEQLSNMVVRA; Comparative sequence) [compound 2215]”, the “CD-105 expression (%)” value (hMSCs [2]) is reported as 68% and the “STRO-1 expression (%)” value (hMSCs [3]) is reported as 71%.
For “2230 (CCVPERLSPISVLFFDNEDNVVLRHYEDMVVDECGCR; Comparative sequence) [compound 2230]”, the “CD-105 expression (%)” value (hMSCs [2]) was 78% and the “STRO-1 expression (%)” value (hMSCs [3]) was 81%.
In the case of “2235 (APTALSAISMLYFDESGNVVLRQYEDMVVEG; Peptide reported in US20120244575, SEQ ID NO:4400) [compound 2235]”, the “CD-105 expression (%)” value (hMSCs [2]) is reported as 63% and the “STRO-1 expression (%)” value (hMSCs [3]) is reported as 77%.
For “2238 (CCAPTELSAISVLYFDDSSNVILKKYEDMVVEACGCR; Comparative sequence) [compound 2238]”, the “CD-105 expression (%)” value (hMSCs [2]) was 72% and the “STRO-1 expression (%)” value (hMSCs [3]) was 76%.
In the case of “2240 (KPCCAPTELSAISVLYFDDSSNVILKKYEDMVVEACGCR; Peptide reported in US20050250936, SEQ ID NO:119) [compound 2240]”, the “CD-105 expression (%)” value (hMSCs [2]) is reported as 69% and the “STRO-1 expression (%)” value (hMSCs [3]) is reported as 73%.
In the case of “CGIPEPSSVPEKMSSLSILFFDENKNVVLKVYPNM (CGIPEPXXVPEKMSSLSILFFDENKNVVLKVYPNM; GFR-binding peptide; MOD_RES (7), (8): Xaa is C or S) [SEQ ID NO: 41]”, the “BMP-6 release in the cell culture medium” value (Hair Follicle Stem Cells) is reported as “decrease” and the Sox2 protein expression (Hair Follicle Stem Cells) is reported as “increase”.
In the case of “CKIPKASSVPTELEPLPIVYYVGRKPKVEQLSNMIVRS (CKIPKAXXVPTELEPLPIVYYVGRKPKVEQLSNMIVRS; GFR-binding peptide; MOD_RES (7), (8): Xaa is C or S) [SEQ ID NO: 36]”, the Sox9 protein expression (hMSCs [4]) is reported as “expression of the Sox9 protein was observed”.
With “GTPGPKVPKPSSAPTQLSAISTLYLDEYDKVVLKNYQNMAVR (GTPGPKVPKPXXAPTQLSAISTLYLDEYDKVVLKNYQNMAVR; GFR-binding peptide; MOD_RES (11), (12): Xaa is C or S) [SEQ ID NO: 23]” the “release of peptide from apatite ceramics over time” value [5] was “no significant release”.
For “WWFWGKVPKPSSAPTQLSAISTLYLDEYDKVVLKNYQNMVVR (WWFWGKVPKPXXAPTQLSAISTLYLDEYDKVVLKNYQNMVVR; GFR-binding peptide; MOD_RES (11), (12): Xaa is C or S) [SEQ ID NO: 22]”, the “release of peptide from type-I collagen sponge over time” value [5] was “no significant release”.
